Three compounds from patent US9155706B2, “Pharmaceutical composition” (Novartis AG, priority 2010, dated 2015) can be followed below.

As a reminder, the half-life is the time in which the quantity being followed falls by half. One may read the Cmax as the peak of the concentration-time curve. Usually AUC(0-t) stands for exposure summed from dosing to a finite time, without extrapolation to infinity. What is called Tmax is the time from dosing to the highest level.

Data set [1] can be described thus: Solubility (comparative statement). Format: physicochemical.
Data set [2] in a line: Exposure and absorption upon in vivo administration (statement).
The nature of data set [3]: Toxic effects at high doses (statement). Format: in vivo. The settings on record: when administered in high doses.
The nature of data set [4]: Photostability: light exposure under ICH Q1B conditions, impurities by HPLC. The class given is physicochemical. The protocol: Uncoated tablets, 0.5, 1 and 2 mg were exposed to ICH Photostability conditions and tested to provide baseline impurity information for comparison.
Data set [5] in a line: Desolvation during handling and formulation (statement). Format: physicochemical.
Data set [6] can be described thus: Repeat dose toxicokinetics and toxicology, oral gavage, DMSO solvate of Compound, rat. As to conditions: for Cmax End of Study: Sprague Dawley, rat, in vivo, po, 0.25 mg/m2. An excerpt: (§1) The pharmacokinetics, absorption, distribution, metabolism and elimination of N-{3-[3-cyclopropyl-5-(2-fluoro-4-iodo-phenylamino)-6, 8-dimethyl-2,4,7-trioxo-3,4,6,7-tetrahydro-2H-pyrido[4,3-d]pyrimidin-1-yl]phenyl}acetamide and solvates thereof, including the dimethyl sulfoxide solvate (collectively referred to as “Compound” when used in connection with animal models or human clinical trials), were investigated in a series of in vitro investigations and with in vivo oral (gavage) and IV studies in the Balb/c mouse, Sprague Dawley rat (unless otherwise stated), beagle dog and cynomolgus monkey using unlabeled and [14C]-labeled Compound. A list of these studies is included, along with subsequently obtained human clinical results, in Table 1 below. For in vivo studies, various formulations were used. For oral dosing, solutions or suspensions were administered.
(§2) Dose range studies in rats at doses up to 1 mg/kg/day for 14 days and in dogs at doses up to 0.5 mg/kg/day (or 10 mg/m2/day) for 10 days were conducted prior to the studies.
In vivo toxicology studies were conducted in Sprague Dawley rats and beagle dogs by oral gavage (Table 3). Studies were conducted using the DMSO solvate of Compound formulated as a suspension in 1.5% hydroxypropylmethylcellulose, 5% mannitol, and 0.2% sodium lauryl sulfate. For all toxicology studies, doses are expressed based on body surface area (mg/m2). In general, to convert mg/m2 doses to mg/kg, divide the doses by 8 for rats and 20 for dogs.

Data set [7] in a line: Repeat-dose (Day 15) pharmacokinetics of Compound tablets, first-time-in-human study. The settings on record: individual values.
Text: (§3) Preliminary PK data was obtained in subjects with solid tumors following single-and repeat-dose oral administration of Compound tablets. The dose-escalation part of the first-time-in-human study (FTIH), involved administration of Compound in one of 3 main dosing regimens: • QD dosing with the designated dose for 21 days, followed by 7 days without drug; • Administration of a loading dose (LD) on both Day 1 and Day 2, or on Day 1 only, followed by continuous QD dosing with the designated dose; or • Administration of continuous QD dosing without a loading dose.
(§4) Additional blood samples were taken pre-dose on Day 15 of Cycle 1 and Day 1 of further cycles in Part 2 and Part 3 to assess steady state trough levels of Compound.
For data set [8] the following is noted: female, beagle, dog, in vivo, po.
Text: as §1, §2
In vivo toxicology studies were conducted in Sprague Dawley rats and beagle dogs by oral gavage (Table 3). Studies were conducted using the DMSO solvate of Compound formulated as a suspension in 1.5% hydroxypropylmethylcellulose, 5% mannitol, and 0.2% sodium lauryl sulfate. For all toxicology studies, doses are expressed based on body surface area (mg/m2). […]

Data set [9] in a line: clinical. The settings on record: human, plasma, oral, 2 mg.
Text: as §3, §4
Data set [10] can be described thus: Single-dose (Day 1) pharmacokinetics of Compound tablets, first-time-in-human study. As to conditions: fasting; for AUC(0-t): AUC (0-24); for Tmax: median (range).
Text: Preliminary PK data was obtained in subjects with solid tumors following single-and repeat-dose oral administration of Compound tablets.
Setting [11] is: single dose Day 1, oral tablets, 0.5 mg, individual values.
Where [12] appears, read: single dose Day 1, oral tablets, 1.0 mg, individual values.

Where “and” joins values, the source holds several entries; their conditions need not be identical. Identical values can stand only once. Entries after “also recorded” stand apart in the source; their conditions may differ. Like-named read-outs stand apart in the source and are kept apart here.

For the compound `CC(=O)Nc1cccc(-n2c(=O)n(C3CC3)c(=O)c3c(Nc4ccc(I)cc4F)n(C)c(=O)c(C)c32)c1` [Compound B, N-{3-[3-cyclopropyl-5-(2-fluoro-4-iodo-phenylamino)-6,8-dimethyl-2,4,7-trioxo-3,4,6,7-tetrahydro-2H-pyrido[4,3-d]pyrimidin-1-yl]phenyl}acetamide], the “solubility compared with Compound A” value in data set [1] is “much less soluble than Compound A”.
For the compound `CC(=O)Nc1cccc(-n2c(=O)n(C3CC3)c(=O)c3c(Nc4ccc(I)cc4F)n(C)c(=O)c(C)c32)c1` [Compound A, N-{3-[3-cyclopropyl-5-(2-fluoro-4-iodo-phenylamino)-6,8-dimethyl-2,4,7-trioxo-3,4,6,7-tetrahydro-2H-pyrido[4,3-d]pyrimidin-1-yl]phenyl}acetamide dimethyl sulfoxide solvate], the exposure and absorption result in data set [2] is “poor exposure and absorption”. Further, in data set [3], the toxic effects entry is “can cause toxic effects when administered in high doses”. In addition, the “photo-stability (in words)” value in data set [4] is reported as “sensitive to photo-induced degradation; also recorded: can suffer from photo-instability”. Further, in [5], the “desolvation to unsolvated Compound B” value is listed as “can undergo desolvation”.
As for `CC(=O)Nc1cccc(-n2c(=O)n(C3CC3)c(=O)c3c(Nc4ccc(I)cc4F)n(C)c(=O)c(C)c32)c1` [Compound, N-{3-[3-cyclopropyl-5-(2-fluoro-4-iodo-phenylamino)-6,8-dimethyl-2,4,7-trioxo-3,4,6,7-tetrahydro-2H-pyrido[4,3-d]pyrimidin-1-yl]phenyl}acetamide], the “maximum tolerated dose (MTD)” value in data set [6] (Rat, 3 weeks, oral, two doses marked MTD, sex shown by bolding that is lost) was 0.5 mg/m^2/day and 1 mg/m^2/day. The “Cmax End of Study” value in [6] (female) is reported as 8.03 ng/mL; in data set [6] (male), 5.34 ng/mL; in data set [8] (0.3 mg/m2), 7.24 ng/mL; in data set [8] (0.45 mg/m2), 9.78 ng/mL. Moreover, the “AR (Accumulation Ratio)” value is 28.3 and 10.2 in data set [7] (repeat dose Day 15, 0.50 mg); 18.1 and 7.8 in data set [7] (repeat dose Day 15, 1 mg); 2.42 and 3.45 in data set [7] (repeat dose Day 15, 4 mg). The “T1/2, eff (Effective Half-Life)” value in [7] (repeat dose Day 15, 0.50 mg) was 461 h and 161 h; in [7] (repeat dose Day 15, 1 mg), 293 h and 122 h; in data set [7] (repeat dose Day 15, 4 mg) it was 48.5 h. The half-life in data set [9] is ~120 h. Further, the C24 entry was “(3.4-11.1) ng/mL” in [10] (Day 1, oral tablets, 6.0 mg loading dose, mean (CV %) and range); “(2.98-12.1) ng/mL” in data set [10] (Day 1, oral tablets, 8.0 mg loading dose, mean (CV %) and range); “(21.0-29.0) ng/mL” in data set [10] (Day 1, oral tablets, 10.0 mg loading dose, mean (CV %) and range); 0 ng/mL and 0.31 ng/mL in data set [10] (setting [11]); 0.38 ng/mL and 0.27 ng/mL in [10] (setting [12]); “(1.15-1.93) ng/mL” in data set [10] (single dose Day 1, oral tablets, 2.0 mg, mean (CV %) and range). For the same compound, the C24 result in data set [10] (single dose Day 1, oral tablets, 2.5 mg, mean (CV %) and range) was “(1.25-3.10) ng/mL”; in data set [10] (single dose Day 1, oral tablets, 3.0 mg, mean (CV %) and range) it was “(0.75-13.4) ng/mL”; in [10] (single dose Day 1, oral tablets, 4.0 mg, mean (CV %) and range) it was “(5.53-14.9) ng/mL”. In addition, the Cmax was 0.85 ng/mL in [10] (human, plasma, po, 0.5 mg, Cmax, single dose Day 1, oral tablets, 0.5 mg, individual values); 1.71 ng/mL in [10] (human, plasma, po, 1 mg, Cmax, single dose Day 1, oral tablets, 1.0 mg, individual values); 5.4 to 8.81 ng/mL in data set [10] (human, plasma, po, 2 mg, Cmax, single dose Day 1, oral tablets, 2.0 mg, mean (CV %) and range); 6.7 to 16.2 ng/mL in data set [10] (human, plasma, po, 2.5 mg, Cmax, single dose Day 1, oral tablets, 2.5 mg, mean (CV %) and range); 2.82 to 22.9 ng/mL in data set [10] (human, plasma, po, 3 mg, Cmax, single dose Day 1, oral tablets, 3.0 mg, mean (CV %) and range); 16.3 to 34.2 ng/mL in [10] (human, plasma, po, 4 mg, Cmax, single dose Day 1, oral tablets, 4.0 mg, mean (CV %) and range). In addition, the Cmax is 6.91 to 37.2 ng/mL in [10] (human, plasma, po, 6 mg, Cmax, Day 1, oral tablets, 6.0 mg loading dose, mean (CV %) and range); 4.28 to 32 ng/mL in [10] (human, plasma, po, 8 mg, Cmax, Day 1, oral tablets, 8.0 mg loading dose, mean (CV %) and range); 65.1 to 87.8 ng/mL in [10] (human, plasma, po, 10 mg, Cmax, Day 1, oral tablets, 10.0 mg loading dose, mean (CV %) and range); 1.96 ng/mL in [10] (setting [12]). Besides, the AUC(0-t) is 13.5 ng·h/mL in data set [10] (human, plasma, po, 1 mg, single dose Day 1, oral tablets, 1.0 mg, individual values); 44.2 to 77.4 ng·h/mL in data set [10] (human, plasma, po, 2 mg, single dose Day 1, oral tablets, 2.0 mg, mean (CV %) and range); 47.3 to 95.9 ng·h/mL in [10] (human, plasma, po, 2.5 mg, single dose Day 1, oral tablets, 2.5 mg, mean (CV %) and range); 27.6 to 188 ng·h/mL in data set [10] (human, plasma, po, 3 mg, single dose Day 1, oral tablets, 3.0 mg, mean (CV %) and range); 167 to 275 ng·h/mL in data set [10] (human, plasma, po, 4 mg, single dose Day 1, oral tablets, 4.0 mg, mean (CV %) and range); 96.7 to 320 ng·h/mL in data set [10] (human, plasma, po, 6 mg, Day 1, oral tablets, 6.0 mg loading dose, mean (CV %) and range). Besides, the AUC(0-t) fell in the range of 62.9 to 308 ng·h/mL in data set [10] (human, plasma, po, 8 mg, Day 1, oral tablets, 8.0 mg loading dose, mean (CV %) and range); 773 to 979 ng·h/mL in [10] (human, plasma, po, 10 mg, Day 1, oral tablets, 10.0 mg loading dose, mean (CV %) and range). The Tmax in [10] (human, plasma, po, 2 mg, single dose Day 1, oral tablets, 2.0 mg) lay in the range of 1.5 to 2 h; in [10] (human, plasma, po, 2.5 mg, single dose Day 1, oral tablets, 2.5 mg), 1 to 2 h; in [10] (human, plasma, po, 3 mg, single dose Day 1, oral tablets, 3.0 mg), 0.5 to 3 h; in data set [10] (human, plasma, po, 6 mg, Day 1, oral tablets, 6.0 mg loading dose), 1.05 to 8.08 h; in data set [10] (human, plasma, po, 8 mg, Day 1, oral tablets, 8.0 mg loading dose) it was 1 to 24 h; in data set [10] (human, plasma, po, 10 mg, Day 1, oral tablets, 10.0 mg loading dose) it was 1 to 2 h. Also, the “AUC (0-24)” value in data set [10] (setting [11]) is 2.13 ng·h/mL and 9.69 ng·h/mL; in [10] (setting [12]), 12.2 ng·h/mL.
